For one series, the target named is T1, human 5HT1A receptor (Homo sapiens, UniProt P08908).
T1 construct: expressed in transfected cells; host or cells: HEK cells (G418 selection)
T1 sequence (P08908 1-422): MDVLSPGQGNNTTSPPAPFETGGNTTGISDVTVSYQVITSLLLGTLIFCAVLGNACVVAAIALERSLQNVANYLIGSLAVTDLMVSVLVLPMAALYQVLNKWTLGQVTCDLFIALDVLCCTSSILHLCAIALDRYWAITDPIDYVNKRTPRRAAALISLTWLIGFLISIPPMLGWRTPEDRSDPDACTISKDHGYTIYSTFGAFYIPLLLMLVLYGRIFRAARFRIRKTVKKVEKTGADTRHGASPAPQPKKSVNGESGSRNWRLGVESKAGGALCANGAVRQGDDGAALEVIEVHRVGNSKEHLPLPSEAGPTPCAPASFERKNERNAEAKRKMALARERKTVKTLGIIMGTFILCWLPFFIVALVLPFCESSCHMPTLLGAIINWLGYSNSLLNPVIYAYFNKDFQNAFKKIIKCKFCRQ
Put plainly: h5HT1A receptors: [3H]8-OH-DPAT binding. Conditions: read-out: 5-HT1A [^3H] 8—OH DPAT Ki(nM) ± SEM. As to the method: Human embryonic kidney cells expressing the human 5HT1A receptor (HEK-h5HT1A) were used. The cells were grown to confluence in DMEM containing 10% FetalClone® (abbreviated as FC—source: HyClone), 0.05% penicillin-streptomycin (pen-strep), and 300 μg/mL of Geneticin (G418). The cells were scraped from 150 mm plates into phosphate-buffered saline and centrifuged at 270×g, 1200 rpm, for 10 minutes. The cell pellet was homogenized in 50 mM Tris-HCl (pH 7.7) with a Polytron, and centrifuged at 27,000×g. […] The final pellet was resuspended at 0.5 mg protein/mL in assay buffer (25 mM Tris-HCl, pH 7.4, containing 100 μM ascorbic acid and 10 μM pargyline). The assay was performed in duplicate in a 96-well plate. Serial dilutions of test compounds were made using the Biomek 2000 robotics system. […] Nonspecific binding was determined with 1.0 μM dihydroergotamine. The plates were incubated at room temperature for 60 minutes and then filtered through polyethylenimine-soaked (0.05%) “A” filtermats on a Tomtec cell harvester. The filters were washed with cold 50 mM Tris buffer (pH 7.7) for 6 sec, dried, spotted with scintillation cocktail, and counted for 2 minutes after a 4 hour delay on a Wallac Betaplate 1205 liquid scintillation counter.

For another series, the target named is T2, human 5HT2A receptor (Homo sapiens, UniProt P28223).
T2 construct: expressed in transfected cells; host or cells: HEK cells
Put plainly: h5HT2A receptors: [125I]DOI binding. The procedure:
Method: Human embryonic kidney cells expressing the human 5HT2A receptor (HEK-h5HT2A) or human 5HT2C receptor (HEK-h5HT2C) were used. The cells were grown until confluent on 15 cm plates. Media was removed, cells were washed with phosphate-buffered saline (PBS), scraped into 2 ml PBS and frozen at −20° C. until needed. Cell suspension was thawed, 10 ml assay buffer (50 mM Tris, pH 7.4 at 37° C., with 0.1% ascorbic acid and 5 mM CaCl2) was added per plate of cells, and polytronned at setting 6 for 5 sec. The homogenate was centrifuged at 15,500 rpm for 20 min. […] The final pellet was resuspended in 2 ml buffer/plate of cells.
The reaction was incubated for 1 hour at 37° C., and terminated by filtration through Wallac A filtermats presoaked in 0.05% polyethylenimine using a Tomtec 96-well harvester. Radioactivity remaining on filters was counted in a Wallac betaplate reader. IC50 values were calculated using GraphPad Prism. IC50 values were converted using the Cheng-Prusoff equation.

Series [1] concerns the target T3, VMAT2 (Homo sapiens, UniProt Q05940). As to the kind of experiment: hVMAT2 5HT Uptake. Type of series: biochemical. Also on record: expressed in transfected cells; host or cells: HEK (human embryonic kidney) cells. Put shortly: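 Membranes came from HEK cells expressing human VMAT2, homogenized in 0.32 M sucrose with protease inhibitors and spun at 800×g then 10,000×g. The pellet was osmotically shocked in ice-cold water, restored with Tris pH 7.4, sodium potassium tartrate and MgSO4, and collected at 20,000×g.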
Target sequence in this assay (Q05940 whole entry): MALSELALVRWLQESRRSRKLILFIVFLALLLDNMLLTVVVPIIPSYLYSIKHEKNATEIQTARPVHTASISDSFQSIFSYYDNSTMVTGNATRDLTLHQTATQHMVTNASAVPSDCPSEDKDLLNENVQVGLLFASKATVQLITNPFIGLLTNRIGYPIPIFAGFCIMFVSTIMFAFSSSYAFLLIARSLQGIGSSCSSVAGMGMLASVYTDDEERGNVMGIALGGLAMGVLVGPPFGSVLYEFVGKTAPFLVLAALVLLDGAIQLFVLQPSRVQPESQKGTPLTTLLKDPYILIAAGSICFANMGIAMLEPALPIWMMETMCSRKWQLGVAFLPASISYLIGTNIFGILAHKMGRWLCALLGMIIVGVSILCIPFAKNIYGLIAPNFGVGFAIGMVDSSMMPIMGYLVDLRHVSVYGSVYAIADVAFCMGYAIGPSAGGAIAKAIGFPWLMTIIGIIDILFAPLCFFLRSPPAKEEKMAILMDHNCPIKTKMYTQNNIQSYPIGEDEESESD

Series [2] addresses T3, VMAT2. As to the kind of experiment: hVMAT2 [3H]DTBZ ([3H]DHTB) binding assay. Also on record: expressed in transfected cells; host or cells: HEK (human embryonic kidney) cells.
Target sequence in this assay (Q05940 whole entry): as above
Series [3] deals with T3, VMAT2. Conditions: high concentrations; cited from earlier work.
Target sequence in this assay (Q05940 whole entry, species assumed): as the sequence (Q05940 whole entry) above
The conditions of series [4]: base; cited from earlier work.
A further series deals with T4, human 5HT2C receptor (Homo sapiens, UniProt P28335).
T4 construct: expressed in transfected cells; host or cells: HEK cells
T4 sequence (P28335 33-458): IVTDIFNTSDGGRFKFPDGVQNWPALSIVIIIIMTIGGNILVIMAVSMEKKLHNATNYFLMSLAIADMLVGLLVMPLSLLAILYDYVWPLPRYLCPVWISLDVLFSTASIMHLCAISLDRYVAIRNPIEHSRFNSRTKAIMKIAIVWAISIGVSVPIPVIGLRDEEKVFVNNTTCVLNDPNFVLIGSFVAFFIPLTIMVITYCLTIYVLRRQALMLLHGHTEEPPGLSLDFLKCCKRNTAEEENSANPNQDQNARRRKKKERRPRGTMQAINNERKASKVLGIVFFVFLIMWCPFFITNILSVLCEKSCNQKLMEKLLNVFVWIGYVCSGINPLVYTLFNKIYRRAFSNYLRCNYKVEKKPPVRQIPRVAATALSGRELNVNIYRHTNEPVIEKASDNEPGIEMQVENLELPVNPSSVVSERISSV
Put plainly: h5HT2C receptors: [125I]DOI binding. Conditions: read-out: Kd for [^125I] DOI at 5HT2C receptors; used in Cheng-Prusoff equation. As to the method:
The method was adapted from AR Knight et al, Naunyn-Schmeideberg's Arch Pharmacol 370, 114-123 (2004).
Method: Human embryonic kidney cells expressing the human 5HT2A receptor (HEK-h5HT2A) or human 5HT2C receptor (HEK-h5HT2C) were used. The cells were grown until confluent on 15 cm plates. Media was removed, cells were washed with phosphate-buffered saline (PBS), scraped into 2 ml PBS and frozen at −20° C. until needed. Cell suspension was thawed, 10 ml assay buffer (50 mM Tris, pH 7.4 at 37° C., with 0.1% ascorbic acid and 5 mM CaCl2) was added per plate of cells, and polytronned at setting 6 for 5 sec. The homogenate was centrifuged at 15,500 rpm for 20 min. To minimize the residual 5HT concentration, the pellet was resuspended in buffer, polytronned, and centrifuged as above. The final pellet was resuspended in 2 ml buffer/plate of cells.
The binding assay included 50 μl drug, 5HT or buffer, 50 μl cell homogenate, 50 μl [^125I]DOI (˜0.1 nM) and buffer in a final volume of 250 μl. Specific binding was defined as the difference between total binding and binding in the presence of 10 μM 5HT. The reaction was incubated for 1 hour at 37° C., and terminated by filtration through Wallac A filtermats presoaked in 0.05% polyethylenimine using a Tomtec 96-well harvester. Radioactivity remaining on filters was counted in a Wallac betaplate reader. IC50 values were calculated using GraphPad Prism. […]

Series [5] has as its target T5, recombinant human dopamine transporter (hDAT) (Homo sapiens, UniProt Q01959).
T5 construct: expressed in transfected cells; host or cells: HEK cells
As to the kind of experiment: [125I]RTI-55 binding, HEK-hDAT. Conditions: used in Cheng-Prusoff equation. As to the method: (§1) Standard methods of assessing [^3H]neurotransmitter uptake and [^125I]RTI-55 binding using HEK cell lines are described in Eshleman et al, J Pharmacol Exp Therap 289, 877-885 (1999), which is incorporated by reference herein and were as follows:
(§2) Compounds were weighed and dissolved in DMSO to make a stock solution of 10 mM. An initial dilution to 50 μM in assay buffer or water for binding, or to 1 mM in assay buffer or water for uptake, was made. Subsequent dilutions were made with assay buffer supplemented with DMSO, maintaining a final concentration of 0.1% DMSO. Pipetting was conducted using a Biomek 2000 robotic workstation.
(§3) Cells were grown to 100% confluence on 150 mm diameter tissue culture dishes and served as the tissue source. Cell membranes were prepared as follows. Medium was poured off the plate, and the plate was washed with 10 ml of calcium- and magnesium-free phosphate-buffered saline. Lysis buffer (10 ml; 2 mM HEPES with 1 mM EDTA) was added. After 10 min, lysed cells were scraped from plates, transferred into centrifuge tubes, and centrifuged at 30,000×g for 20 min. The supernatant fluid was removed, and the pellet was resuspended in 12-32 ml of sucrose (0.32 M) using a Polytron at setting 7 for 10 sec. The resuspension volume depended on the density of binding sites within a cell line and was chosen to reflect binding of 10% or less of the total radioactivity. […]

Series [6] deals with T6, recombinant human norepinephrine transporter (hNET) (Homo sapiens, UniProt P23975).
T6 construct: expressed in transfected cells; host or cells: HEK cells
As to the kind of experiment: [125I]RTI-55 binding, HEK-hNET. Conditions: used in Cheng-Prusoff equation. As to the method:
as §1, §2, §3

For series [7], the target named is T7, recombinant human serotonin transporter (hSERT) (Homo sapiens, UniProt P31645).
T7 construct: expressed in transfected cells; host or cells: HEK cells
Put plainly: [125I]RTI-55 binding, HEK-hSERT. Particulars: used in Cheng-Prusoff equation. The procedure:
as §1, §2, §3

Series [8] deals with T3, VMAT2. Conditions: transfected cells; Miller et al 2004; cited from earlier work.
Target sequence in this assay (Q05940 whole entry, species assumed): as the sequence (Q05940 whole entry) above
The conditions of series [9]: rats, lever press; Harrod et al 2001; cited from earlier work.
The target in the next series is DAT (Homo sapiens, UniProt Q01959). Particulars: transfected cells; Miller et al 2004; cited from earlier work.
Where [10] appears, read: cells printed in μM under a head in nM.
Setting [11] is: cells printed in μM under a head in nM, read-out: hVMAT2 5HT Uptake IC50 (nM) ± SEM.
Where [12] appears, read: cells printed in μM under a head in nM, HEK-hVMAT2 membranes.
Where [13] appears, read: HEK-h5HT2A homogenate, read-out: 5-HT2A [^125I]DOI Ki (nM) ± SEM.

Where two headings read alike, the source gives them in different places. A value given as a limit tells only on which side of the number the result lay.

T2 sequence (P28223 whole entry): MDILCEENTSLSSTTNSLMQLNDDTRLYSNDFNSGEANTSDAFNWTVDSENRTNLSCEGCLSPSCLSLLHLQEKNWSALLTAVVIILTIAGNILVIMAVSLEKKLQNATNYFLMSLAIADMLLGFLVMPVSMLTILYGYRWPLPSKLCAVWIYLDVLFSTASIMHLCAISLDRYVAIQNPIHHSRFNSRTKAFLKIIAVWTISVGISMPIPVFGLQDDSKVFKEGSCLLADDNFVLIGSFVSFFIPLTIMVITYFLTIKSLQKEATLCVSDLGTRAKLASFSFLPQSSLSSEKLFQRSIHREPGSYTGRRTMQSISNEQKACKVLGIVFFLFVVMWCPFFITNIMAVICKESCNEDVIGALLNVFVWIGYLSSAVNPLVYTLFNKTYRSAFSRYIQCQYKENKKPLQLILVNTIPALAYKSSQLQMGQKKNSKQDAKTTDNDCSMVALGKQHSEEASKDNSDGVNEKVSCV
T6 sequence (P23975 whole entry): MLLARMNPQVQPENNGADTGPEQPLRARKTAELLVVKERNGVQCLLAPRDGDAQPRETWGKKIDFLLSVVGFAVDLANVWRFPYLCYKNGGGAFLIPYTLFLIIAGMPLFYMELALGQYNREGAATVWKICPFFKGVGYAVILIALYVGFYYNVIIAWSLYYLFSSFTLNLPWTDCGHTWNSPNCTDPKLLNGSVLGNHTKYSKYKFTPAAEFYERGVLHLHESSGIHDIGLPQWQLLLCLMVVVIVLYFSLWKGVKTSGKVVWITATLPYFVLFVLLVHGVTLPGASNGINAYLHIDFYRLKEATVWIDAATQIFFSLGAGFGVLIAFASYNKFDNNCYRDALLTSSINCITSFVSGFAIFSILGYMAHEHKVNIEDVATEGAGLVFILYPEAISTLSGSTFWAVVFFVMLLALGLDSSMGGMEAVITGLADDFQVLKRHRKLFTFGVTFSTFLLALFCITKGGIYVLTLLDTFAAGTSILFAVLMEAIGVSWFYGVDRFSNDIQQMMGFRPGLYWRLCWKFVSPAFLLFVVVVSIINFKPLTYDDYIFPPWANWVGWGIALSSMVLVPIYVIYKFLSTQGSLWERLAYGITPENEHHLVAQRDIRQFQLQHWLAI
T7 sequence (P31645 whole entry): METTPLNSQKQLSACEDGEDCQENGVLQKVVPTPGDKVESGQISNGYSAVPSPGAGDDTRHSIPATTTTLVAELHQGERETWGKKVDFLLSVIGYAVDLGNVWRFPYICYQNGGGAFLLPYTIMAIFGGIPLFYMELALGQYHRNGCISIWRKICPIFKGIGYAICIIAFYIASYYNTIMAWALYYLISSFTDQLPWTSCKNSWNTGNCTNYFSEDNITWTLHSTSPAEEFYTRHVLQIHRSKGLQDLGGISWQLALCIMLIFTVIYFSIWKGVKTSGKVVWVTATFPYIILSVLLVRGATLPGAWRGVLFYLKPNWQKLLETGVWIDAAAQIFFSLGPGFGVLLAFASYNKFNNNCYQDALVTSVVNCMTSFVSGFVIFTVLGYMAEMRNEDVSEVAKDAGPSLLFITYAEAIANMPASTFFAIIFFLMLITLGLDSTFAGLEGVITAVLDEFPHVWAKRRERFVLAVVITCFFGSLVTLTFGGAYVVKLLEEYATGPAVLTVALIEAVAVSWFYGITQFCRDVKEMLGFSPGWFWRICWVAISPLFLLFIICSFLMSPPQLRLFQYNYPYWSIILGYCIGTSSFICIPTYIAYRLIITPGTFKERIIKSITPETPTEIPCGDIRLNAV
T5 sequence (Q01959 whole entry): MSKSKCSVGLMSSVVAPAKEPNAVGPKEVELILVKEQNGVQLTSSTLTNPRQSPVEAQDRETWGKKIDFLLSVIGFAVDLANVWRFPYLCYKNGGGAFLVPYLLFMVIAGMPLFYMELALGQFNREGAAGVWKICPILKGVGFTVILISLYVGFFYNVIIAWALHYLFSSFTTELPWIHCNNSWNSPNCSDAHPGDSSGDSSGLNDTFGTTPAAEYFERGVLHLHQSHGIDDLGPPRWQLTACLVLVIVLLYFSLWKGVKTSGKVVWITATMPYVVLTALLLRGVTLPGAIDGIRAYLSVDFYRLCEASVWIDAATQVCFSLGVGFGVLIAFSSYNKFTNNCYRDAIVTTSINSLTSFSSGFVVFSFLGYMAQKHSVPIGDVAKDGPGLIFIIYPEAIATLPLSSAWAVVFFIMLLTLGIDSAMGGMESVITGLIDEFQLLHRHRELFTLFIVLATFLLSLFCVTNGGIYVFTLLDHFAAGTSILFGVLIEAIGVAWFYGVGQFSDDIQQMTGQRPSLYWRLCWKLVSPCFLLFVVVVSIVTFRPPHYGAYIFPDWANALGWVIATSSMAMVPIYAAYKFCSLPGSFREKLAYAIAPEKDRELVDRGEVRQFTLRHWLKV
DAT, sequence (Q01959 whole entry, species assumed): as the sequence (Q01959 whole entry) above

As usually defined, the Ki is a dissociation constant, usually derived from enzyme kinetics or from competition with a known ligand. In general, IC50 refers to the concentration that inhibits the measured activity by half. As usually defined, the melting point is the temperature of the solid-liquid transition. `CCOC(=O)[C@@H]1CN(CCn2c(=O)[nH]c3ccccc3c2=O)CC[C@@H]1c1ccc(C(C)O)cc1` (mixture of isomers) [Compound 5p, (±) syn-ethyl 1-(2-(2,4-dioxo-1,2-dihydroquinazolin-3(4H)-yl)ethyl)-4-(4-(1-hydroxyethyl)phenyl)piperidine-3-carboxylate] gave a melting point of 187 to 188 °C. In addition, the inhibition constant Ki on human 5HT1A receptor (setting [10]) is greater than 10 µM. The inhibitory constant (Ki) on human 5HT2A receptor (cells printed in μM under a head in nM, read-out: 5-HT2A [^125I]DOI Ki (nM) ± SEM) is greater than 10 µM. Moreover, on VMAT2 [1] (setting [11]), the half-maximal inhibitory concentration (IC50) was greater than 8 µM. The compound also gave a Ki at VMAT2 [2] (setting [12]) greater than 9 µM.

In general, pKa refers to the pH at which an ionisable group is half protonated. Turning to `CN[C@@H](C)Cc1ccccc1` [MA, Methamphetamine], the “concentration for inhibition of [^3H]DTBZ binding” value at VMAT2 [3] is on record as 1.2 mM. Besides, the pKa in [4] is listed as 9.8.

In the case of `O=C(c1ccc(F)cc1)C1CCN(CCn2c(=O)[nH]c3ccc(Br)cc3c2=O)CC1` [R1=Br, R2=H], the Ki at human 5HT1A receptor (setting [10]) is greater than 2 µM; at human 5HT2A receptor (setting [13]), 0.0008 ± 0.00024 µM; on VMAT2 [2] (setting [12]), greater than 3 µM. For the same compound, the IC50 at VMAT2 [1] (setting [11]) is greater than 2 µM.

Consider `CCOC(=O)C1=C(c2ccccc2)CCN(CCn2c(=O)[nH]c3ccccc3c2=O)C1` [R1=CO2-Et, 3,4-bond=ene], for which the inhibitory constant (Ki) on human 5HT1A receptor (HEK-h5HT1A homogenate) was greater than 0.0063 µM; on human 5HT2A receptor, 0.081 ± 0.026 µM; at VMAT2 [2] (read-out: hVMAT2 [^3H]DTBZ Ki (nM) ± SEM), 0.874 ± 0.276 µM. In addition, half-maximal inhibition against VMAT2 [1] (IC50) required 0.066 ± 0.015 µM.

For the compound `O=c1[nH]c2ccccc2c(=O)n1CCN1CC=C(c2ccccc2)CC1` [R1=H, 3,4-bond=ene], the Ki on human 5HT1A receptor (HEK-h5HT1A homogenate) was determined as 0.197 ± 0.015 µM; at human 5HT2A receptor (setting [13]) it was 0.139 ± 0.027 µM; on VMAT2 [2] (HEK-hVMAT2 membranes, series 5 ligands tested as hydrochloride salts), 0.821 ± 0.197 µM. At VMAT2 [1], this compound yielded a half-maximal inhibitory concentration (IC50) of 0.0039 ± 0.0005 µM.

As usually defined, the Kd is a measure of binding affinity in units of concentration. As to `COc1cc(CC(C)N)c(OC)cc1I` (centres unmarked) [[^125I] DOI], on human 5HT2C receptor, the Kd turned out to be 4.18 nM.

Take `COC(=O)[C@H]1[C@@H](c2ccc(I)cc2)C[C@@H]2CC[C@H]1N2C` [[^125I]RTI-55]: the values for the Kd in series [5], in [6] and in series [7] were 1.2 nM, 12.1 nM and 0.98 nM, respectively.

On to `CN1[C@@H](CC(=O)c2ccccc2)CCC[C@H]1C[C@H](O)c1ccccc1` [lobeline, 2-((2R,6S)-6-((S)-2-Hydroxy-2-phenylethyl)-1-methylpiperidin-2-yl)-1-phenylethanone], for which the “affinity at VMAT2” value at VMAT2 [8] was 4.3 µM. Also, the “responding for intravenous MA or sucrose after pretreatment” value in series [9] is reported as “decreased responding to both acutely”. For the same compound, the “affinity at the DAT” value on DAT was 5.4 µM.

Values taken from patent US9546151B2, “VMAT inhibitory compounds” (Oregon Health & Science University, priority 2014, dated 2017).
